These results are taken from article PMC9827630, “Intra-colony venom diversity contributes to maintaining eusociality in a cooperatively breeding ant” (BMC Biology, 2023).

Where no end group is shown, it is not given here.

The subject of series [1] is Cryptococcus neoformans var. grubii H99; ATCC 208821. The series is described as follows: Antifungal growth inhibition (CO-ADD). The conditions noted are these: percentage growth inhibition, difference in absorbance 600 and 570 nm after resazurin, 35°C 2 h; mean ± SEM. The format is cell-based. Here is the method: (§1) Antimicrobial and cytotoxicity assays were performed by CO-ADD (The Community for Antimicrobial Drug Discovery, Institute for Molecular Bioscience, The University of Queensland). […] Percentage growth inhibition was calculated using negative controls (media only) and positive controls (no peptide). For the hemolysis assays, human whole blood was washed three times with 3 volumes of 0.9% NaCl and then resuspended in 0.9% NaCl to a concentration of 0.5 × 10^8 cells/mL. Cells were incubated for 1 h at 37°C with or without the peptide. After incubation, plates were centrifuged at 1000 g for 10 min to pellet cells and debris and hemolysis determined by measuring the supernatant absorbance at 405 nm.

Series [2] relates to Candida albicans ATCC 90028. The series is described as follows: Antifungal growth inhibition (CO-ADD). The format is cell-based. The conditions noted are these: percentage growth inhibition, absorbance at 530 nm; mean ± SEM. The procedure:
as §1

In series [3] the test system is MM96L cells (melanoma cell line). Nature of the series: Cell viability assay, resazurin. The conditions noted are these: 100 μM peptide. The format is cell-based. The procedure:
(§2) In addition to the cytotoxicity assays performed by CO-ADD, we screened the synthetic peptides for toxicity in cell viability assays using HAP1, MM96L, and HEK293T cells. peptides were reconstituted in 100% DMSO then diluted in cell media (HAP1: IMDM (Sigma Aldrich) with 10% FBS and 1% Penicillin/Streptomycin (P/S); MM96L: RPMI (Gibco) with 10% FBS, 1% P/S and 1% GlutaMAX (Gibco); HEK293T: DMEM high glucose (Gibco), with 10% FBS and 1% P/S. Trypsinized cells ([…]) were seeded in each well of a 96-well plate. 0.01 to 1000 μM peptide was added to each well after 24 h, and the cells incubated for an additional 74 h. After incubation, the medium was aspirated from each well and 150 μL of fresh medium containing a 0.002% solution of resazurin (Sigma-Aldrich) was added to the wells and incubated for 4 h at 37 °C. The absorbance was measured at 570 nm using a microplate spectrophotometer (FLUOstar Omega, BMG Labtech, Germany). Percentage cell viability at concentrations of 10 and 100 μM peptide were compared with negative control by one-way ANOVA Dunnett’s multiple comparisons test (GraphPad Prism8).
In general terms: The colour change of resazurin is a common sign of viable cells or microbes.

A further series concerns HAP1 cells. The series is described as follows: Cell viability assay, resazurin. The format is cell-based. The procedure:
as §2

A further series has as its system HEK293T cells. The series is described as follows: Cell viability assay, resazurin. The format is cell-based. The conditions noted are these: 100 μM peptide. The procedure:
as §2

In the next series the test system is panel of microbes. The series is described as follows: Antimicrobial screening, summary over the panel of microbes. The conditions noted are these: all strains of the panel (for Rm54a and Rm55a: strains other than S. aureus). The format is cell-based. Here is the method: as §1
For the next series, the system named is F11. Nature of the series: Ion permeability F11. The format is cell-based, mouse. The conditions noted are these: ions listed as permeant; - = none.
The test system of another series is Human red blood cells. The series is described as follows: Hemolysis assay (CO-ADD). The conditions noted are these: hemolysis, washed human blood 0.5 × 10^8 cells/mL in 0.9% NaCl, 1 h at 37°C, supernatant absorbance at 405 nm; mean ± SEM. The format is cell-based. Here is the method:
as §1

In series [4] the test system is Pseudomonas aeruginosa ATCC 27853. The series is described as follows: Antimicrobial growth inhibition (CO-ADD). The format is cell-based. The conditions noted are these: percentage growth inhibition, absorbance at 600 nm; mean ± SEM. The procedure:
as §1

Series [5] concerns Staphylococcus aureus ATCC 43300. The series is described as follows: Antimicrobial growth inhibition (CO-ADD). The format is cell-based. The procedure: as §1
For series [6], the system named is Klebsiella pneumoniae ATCC 700603. The series is described as follows: Antimicrobial growth inhibition (CO-ADD). The format is cell-based. The conditions noted are these: percentage growth inhibition, absorbance at 600 nm; mean ± SEM. The procedure: as §1
The test system of series [7] is Escherichia coli ATCC 25922. Nature of the series: Antimicrobial growth inhibition (CO-ADD). The format is cell-based. The conditions noted are these: percentage growth inhibition, absorbance at 600 nm; mean ± SEM. Here is the method:
as §1

Series [8] has as its system Acinetobacter baumannii ATCC 19606. Nature of the series: Antimicrobial growth inhibition (CO-ADD). The format is cell-based. The conditions noted are these: percentage growth inhibition, absorbance at 600 nm; mean ± SEM. Here is the method:
as §1

The next series deals with HEK. The series is described as follows: Ion permeability HEK. The format is cell-based, Human. The conditions noted are these: ions listed as permeant; - = none.
Series [9] concerns Human embryonic kidney cells ATCC CRL-1573. The series is described as follows: Cytotoxicity assay (CO-ADD), resazurin. The format is cell-based. The conditions noted are these: percentage growth inhibition, resazurin fluorescence, 37°C 5% CO2; mean ± SEM. Here is the method: as §1
Series [10] has as its system Female fruit flies (D. melanogaster strain Canton-S). The series is described as follows: Fruit fly injection assay (lethality, paralysis, climbing). The format is in vivo, Drosophila melanogaster. The conditions noted are these: 5 nmol/g injected, climbing assay 5 min after injection; significant versus control. The procedure:
Female fruit flies (D. melanogaster strain Canton-S) were injected four to six days post-emergence. Female flies were used because their larger size makes injection easier. Groups of eight female flies were assayed in triplicate for each dose tested. Injection needles were formed from glass capillary tubes (#3-000-203-G/X, Drummond, Birmingham, AL, USA) using a micropipette puller (Sutter Instrument Co. Model P-97), with the fine tip manually trimmed afterwards using scissors. Needles then were filled with mineral oil, connected to a Nanoliter 2000 microinjector ([…], Bensenville, IL USA) equipped with a foot pedal, and ~1 μL of peptide solution or water aspirated. Each group of flies were immobilized by cooling for approximately 2 min on ice, and then decanted on the top of the ‘injection stage’, a petri dish filled with ice. Under a dissecting microscope, each fly was carefully impaled on the lateral thorax behind the wing, and 50.6 nL of venom peptide or water was injected. After injection, each group of flies were returned to their 5 mL plastic tube at room temperature and their behavior observed.

On to LWPFLISLIPTVIDLARNL-NH2 [Rm54a], for which the “Max response ± SEM” value in [1] is -15 ± 2; in series [2] it was 10 ± 3; in the series with Human red blood cells it was 95 ± 6; in [4], 16 ± 1; in [5] (percentage growth inhibition, absorbance at 600 nm, mean ± SEM) it was 102 ± 1; in series [6] it was 10 ± 2. Further, the entries for the “Max response ± SEM” value in [7], in series [8] and in [9] were 10 ± 1, 22 ± 3 and 95 ± 0, respectively. For the same substance, the “Cytotoxicity against MM96L cells” value in series [3] is listed as “not the melanoma cell line MM96L”. The “Cytotoxicity to HAP cells” value with HAP1 cells is on record as “cytotoxic to HAP cells”. Further, in the series on HAP1 cells (10 μM peptide, n = 3 per group), the HAP cell viability result is “significantly reduced HAP cell viability”. In the series on HEK293T cells, the “Cytotoxicity against HEK293T cells” value is “cytotoxic against HEK293T cells”. Besides, the “Growth inhibition over the microbial strains examined” value with panel of microbes is on record as “not affecting any of the other strains examined”. Further, in the series on F11, the “ion permeability F11” value is recorded as “Ca2+,Na+,Th+”. Also, the “Inhibition of S. aureus (in words)” value in series [5] is on record as “complete inhibition”. Moreover, the “ion permeability HEK” value with HEK is given as “Ca2+,Na+,Th+”. Also, the “Motor behavior (climbing assay)” value in series [10] was “disrupted motor behavior”.
